In paper PMC6444227, “Pharmacological Evaluation of Secondary Metabolites and Their Simultaneous Determination in the Arabian Medicinal Plant Plicosepalus curviflorus Using HPTLC Validated Method” (Journal of Analytical Methods in Chemistry, 2019):
Values after ≈ are worked out from the molar mass of the structure shown.

Columns and labels:
[1] = test system: Escherichia fergusonii (CU928158.2); test: Antibacterial well diffusion; type: cell-based; details: 10 µL per well, mean ± SD
Description: (§1) (CP017183.1), Escherichia fergusonii (CU928158.2), and Pseudomonas aeruginosa (NR-117678.1) and Gram-positive Staphylococcus aureus (CP011526.1) and Bacillus licheniformis (KX785171.1) using well diffusion and broth microdilution techniques as described by Berghe and […] [16]. The bacterial strains were suspended in a nutrient broth for 24 hr, and the suspension then spread on Mueller-Hinton agar. […] Amikacin was used as the positive control.

[2] = test system: Klebsiella pneumonia (ATCC 700603); test: Antibacterial well diffusion; type: cell-based; details: 10 µL per well, mean ± SD
Description: as §1

[3] = test system: Pseudomonas aeruginosa (ATCC 27853); test: Antibacterial well diffusion; type: cell-based; details: 10 µL per well, mean ± SD
Description: as §1

Staphylococcus aureus [4] = test: Antibacterial well diffusion; type: cell-based; details: 10 µL per well, mean ± SD
Description: as §1

[5] = test system: Bacillus cereus (ATCC 14579); test: Antibacterial well diffusion; type: cell-based; details: 10 µL per well, mean ± SD
[6] = test system: Escherichia fergusonii (CU928158.2); test: Antibacterial broth microdilution (MIC); type: cell-based; details: read-out: MIC, E. fergusonii
Description: as §1

[7] = test system: Klebsiella pneumonia (ATCC 700603); test: Antibacterial broth microdilution (MIC); type: cell-based; details: Klebsiella pneumoniae, ATCC700603, read-out: MIC, K. pneumonia
Description: as §1

[8] = test system: Pseudomonas aeruginosa (ATCC 27853); test: Antibacterial broth microdilution (MIC); type: cell-based; details: ATCC27853, read-out: MIC, P. aeruginosa
Description: as §1

Staphylococcus aureus [9] = test: Antibacterial broth microdilution (MIC); type: cell-based; details: read-out: MIC, S. aureus
Description: as §1

[10] = test system: Bacillus cereus (ATCC 14579); test: Antibacterial broth microdilution (MIC); type: cell-based; details: ATCC14579, read-out: MIC, B. cereus
PPARα = target: T1, PPARα (Homo sapiens, UniProt Q07869); test: PPARα reporter gene assay (luciferase fold induction); type: cell-based; details: for PPAR alpha agonistic activity, fold induction: dual activation
T1 construct: expressed in transfected cells
T1 sequence (Q07869 1-468): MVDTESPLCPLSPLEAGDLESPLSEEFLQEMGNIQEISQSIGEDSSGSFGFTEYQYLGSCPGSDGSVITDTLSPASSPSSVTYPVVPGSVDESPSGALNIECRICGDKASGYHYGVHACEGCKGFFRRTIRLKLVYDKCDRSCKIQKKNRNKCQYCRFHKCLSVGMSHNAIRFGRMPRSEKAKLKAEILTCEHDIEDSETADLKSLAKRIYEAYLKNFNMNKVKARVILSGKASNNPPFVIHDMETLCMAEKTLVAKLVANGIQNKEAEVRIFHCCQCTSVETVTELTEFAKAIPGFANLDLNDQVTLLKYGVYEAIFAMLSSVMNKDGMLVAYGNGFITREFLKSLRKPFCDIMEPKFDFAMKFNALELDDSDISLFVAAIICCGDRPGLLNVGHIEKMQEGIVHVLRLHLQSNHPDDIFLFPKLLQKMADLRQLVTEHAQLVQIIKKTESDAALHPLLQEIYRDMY
Description: (§2) A reporter gene assay was carried out as described previously. Briefly, upon confluency, the different concentrations of the test samples were exposed to transfected cells for 24 hrs. Vehicle control was taken into consideration when the fold induction in luciferase activity was calculated. Both rosiglitazone and ciprofibrate were used as control drugs for PPARα and PPARγ, respectively.
(§3) Fold induction in the PPAR activity was detected in response to the methanol fraction and pure compounds according to untreated controls. A fold induction of 1.5 means a 50% increase in PPAR activity. […] Several studies have been carried out with the aim of exploring the potential of selective PPARγ modulators. The dual activator effect of P2 is in agreement with previous literature.

PPARγ = target: T2, PPARγ (Homo sapiens, UniProt P37231); test: PPARγ reporter gene assay (luciferase fold induction); type: cell-based; details: for PPAR gamma agonistic activity, fold induction: dual activation
T2 construct: expressed in transfected cells
T2 sequence (P37231 1-505): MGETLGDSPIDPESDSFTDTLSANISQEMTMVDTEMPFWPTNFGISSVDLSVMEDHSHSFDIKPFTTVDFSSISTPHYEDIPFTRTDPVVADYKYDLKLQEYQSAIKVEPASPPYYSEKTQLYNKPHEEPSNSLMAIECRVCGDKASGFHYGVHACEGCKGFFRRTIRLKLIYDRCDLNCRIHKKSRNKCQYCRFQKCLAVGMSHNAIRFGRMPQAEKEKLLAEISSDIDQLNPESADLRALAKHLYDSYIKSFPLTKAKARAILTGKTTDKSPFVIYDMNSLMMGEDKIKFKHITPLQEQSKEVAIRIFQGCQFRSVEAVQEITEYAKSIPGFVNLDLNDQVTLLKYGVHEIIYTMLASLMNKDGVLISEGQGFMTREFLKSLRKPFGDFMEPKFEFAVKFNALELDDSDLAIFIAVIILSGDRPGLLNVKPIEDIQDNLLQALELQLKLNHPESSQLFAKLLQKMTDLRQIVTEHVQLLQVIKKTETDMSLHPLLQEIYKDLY
Description: as §2, §3

HepG2 cells = test: Cellular antioxidant assay (decrease in oxidative stress, ABAP); type: cell-based, human
Description: Human hepatoma cell line (HepG2) was the cell line of choice in this study according to the previously described method. At a density of 60,000 cells/well, the HepG2 cells were seeded in a 96-well plate and incubated for 24 h for confluency. PBS was used for washing the cells, followed by samples treatment. The SpectraMax plate reader was used for reading the plates after addition of 600 μM of ABAP. The area under the curve (AUC) of fluorescence units and time were two parameters used for indication of the percent decrease in oxidative stress. Percent decrease in oxidative stress = 100 − ((AUC sample/AUC control) × 100). Quercetin was used as a positive control.

iNOS = iNOS inhibition, nitrite level in LPS-treated macrophages (Griess); type: cell-based, mouse; details: for IC50: Mus musculus
Description: Mouse macrophage (RAW264.7) cells were seeded in the wells of 96-well plates followed by 24 hrs for confluency according to the method described previously. The test samples were treated with LPS (5 μg/mL) and followed by 24-hour incubation as well. The nitrite level in cell supernatant was measured by Griess reagent. The dose response curves gave indication for IC50 values. Parthenolide was used as positive control.

LLC-PK11 = test: Cytotoxicity assay (Borenfreund method, 48 h); type: cell-based; details: NA = no cytotoxic activity upto 100 µg/mL, read-out: Noncancer cells IC50, LLC-PK11
Description: (§4) Four human cancer cell lines (SK-OV-3, SK-MEL, BT-549 and KB) and two noncancerous kidney cell lines (VERO and LLC-PK1) were measured in the in vitro cytotoxic study. Test samples were added on the cell lines with variable concentrations, followed by 48 h incubation. According to the Borenfreund method, the cell viability was determined at the end of incubation, using doxorubicin as a positive control.

[11] = test system: four cancerous cell lines as well as the two normal cell lines; test: Cytotoxicity, whole panel; type: cell-based; details: all cell lines
Description: as §4

[12] = at 250 µg/mL for pure compounds
[13] = RAW264.7, LPS 5 µg/mL, 24 h, NA = no activity up to 100 µg/mL

## NCC[C@H](O)C(=O)N[C@@H]1C[C@H](N)[C@@H](O[C@H]2O[C@H](CN)[C@@H](O)[C@H](O)[C@H]2O)[C@H](O)[C@H]1O[C@H]1O[C@H](CO)[C@@H](O)[C@H](N)[C@H]1O [AMK, Amikacin, reference compound]
[1]
  ZOI diameter, E. fergusonii: 24 ± 1.5 mm
[2]
  ZOI diameter, K. pneumonia: 25 ± 0.8 mm
[3]
  ZOI diameter, P. aeruginosa: 18 ± 1.3 mm
Staphylococcus aureus [4]
  ZOI diameter, S. aureus: 24 ± 1 mm
[5]
  ZOI diameter, B. cereus: 20 ± 0.9 mm
[6]
  MIC: 4.5 µg/mL (≈ 7.68 µM)
[7]
  MIC: 5 µg/mL (≈ 8.54 µM)
[8]
  MIC: 8 µg/mL (≈ 13.7 µM)
Staphylococcus aureus [9]
  MIC: 6.2 µg/mL (≈ 10.6 µM)
[10]
  MIC: 7.3 µg/mL (≈ 12.5 µM)

## CC(C)(Oc1ccc(C2CC2(Cl)Cl)cc1)C(=O)O (centres unmarked) [Ciprofibrate, reference compound]
PPARα; control drug at 10 µM, read-out: Fold induction PPAR alpha
  fold induction at 10 µM: 2.2

## O=c1c(O)c(-c2ccc(O)c(O)c2)oc2cc(O)cc(O)c12 [Compound P1, quercetin]
PPARα
  PPAR alpha agonistic activity, fold induction: no PPAR agonistic activity
PPARγ
  PPAR gamma agonistic activity, fold induction: no PPAR agonistic activity
HepG2 cells; [12]
  % decrease in oxidative stress: 52%
HepG2 cells; positive control at 50 µM
  % decrease in oxidative stress: 75%
iNOS; RAW264.7, 24 h, RAW264.7, LPS 5 µg/mL, 24 h, NA = no activity up to 100 µg/mL
  IC50: 25 µg/mL (≈ 82.7 µM)
iNOS; [13]
  iNOS inhibition (IC50): 48 µg/mL
LLC-PK11
  IC50: 55 µg/mL (≈ 182 µM)
[11]
  Cytotoxicity (in words): not cytotoxic
[1]
  ZOI diameter, E. fergusonii: 16.3 ± 0.57 mm
[2]
  ZOI diameter, K. pneumonia: 21.3 ± 1.15 mm
[3]
  ZOI diameter, P. aeruginosa: 21 ± 1 mm
Staphylococcus aureus [4]
  ZOI diameter, S. aureus: 18 ± 1 mm
[5]
  ZOI diameter, B. cereus: 19.3 ± 1.15 mm
[6]
  MIC: 9.3 µg/mL (≈ 30.8 µM)
[7]
  MIC: 6.2 µg/mL (≈ 20.5 µM)
[8]
  MIC: 6.6 µg/mL (≈ 21.8 µM)
Staphylococcus aureus [9]
  MIC: 8.3 µg/mL (≈ 27.5 µM)
[10]
  MIC: 8.4 µg/mL (≈ 27.8 µM)

## Oc1cc(O)c2c(c1)O[C@@H](c1ccc(O)c(O)c1)[C@H](O)C2 [Compound P2, (-)-catechin]
PPARα; 12.5 µg/mL, 24 hrs, NA = not active, read-out: Fold induction PPAR alpha
  fold induction at 12.5 µg/mL: 1.19
PPARα; 25 µg/mL, 24 hrs, NA = not active, read-out: Fold induction PPAR alpha
  fold induction at 25 µg/mL: 1.31
PPARα; 50 µg/mL, 24 hrs, NA = not active, read-out: Fold induction PPAR alpha
  fold induction at 50 µg/mL: 1.47
PPARα
  PPAR alpha agonistic activity, fold induction: ≥ 1.5 fold
PPARγ; 12.5 µg/mL, 24 hrs, NA = not active, read-out: Fold induction PPAR gamma
  fold induction at 12.5 µg/mL: 1.19
PPARγ; 25 µg/mL, 24 hrs, NA = not active, read-out: Fold induction PPAR gamma
  fold induction at 25 µg/mL: 1.55
PPARγ; 50 µg/mL, 24 hrs, NA = not active, read-out: Fold induction PPAR gamma
  fold induction at 50 µg/mL: 1.53
PPARγ
  PPAR gamma agonistic activity, fold induction: ≥ 1.5 fold
HepG2 cells; [12]
  % decrease in oxidative stress: 39%
iNOS
  iNOS inhibition (in words): showed iNOS inhibition
iNOS; [13]
  IC50: > 50 µg/mL
LLC-PK11
  IC50: 16 µg/mL (≈ 55.1 µM)
[11]
  Cytotoxicity (in words): not cytotoxic
[1]
  ZOI diameter, E. fergusonii: 8 ± 1 mm
[6]
  MIC: 11 µg/mL (≈ 37.9 µM)
